{"source": "patent US20120316065A1", "about": "“SURFACTANT BLENDS FOR AUXIN ACTIVITY HERBICIDES” (AKZO NOBEL CHEMICALS INTERNATIONAL B.V., priority 2010, published 2012)", "test_system": "alfalfa (Medicago sativa)", "assay": "Greenhouse herbicidal efficacy of 2,4-D amine tank-mixed with adjuvants, post-emergence spray", "assay_type": "in vivo", "conditions": "2,4-D DMA 0.125 lb/A, adjuvant 0.25% wt (0 for None), scale 0% no damage to 100% complete damage", "experimental": "The surfactant blends described in Table 1 were applied by the tank mix method together with 2,4-D amine salt (465 g/l). The application rate per ha was 0.1250 lb 2,4-D amine salt ai/A and 0.25% of surfactant blends according to the invention or 0.25% comparative adjuvant Activator 90 (alkylphenol ethoxylate, alcohol ethoxylate and tall oil fatty acid, (Loveland). The herbicidal effect was assessed in a greenhouse environment after 1, 2, 3, and 4 weeks. The test plant used was alfalfa (Medicago sativa).\nThe plants were sown directly to the pot. When the active ingredient was applied, the plants were 20-30 cm in height. The test containers used were plastic pots containing potting mixture. The solutions were applied by the tank mix method by spray application post-emergence in an automated spray cabinet with a water application rate of 200 liters per hectare. Evaluation was carried out using a scale of from 0% to 100%. 0% means no damage, 100% means complete damage. The results of the assessment are compiled in tables 2 and which follow.", "data": [{"smiles": "O=C(O)COc1ccc(Cl)cc1Cl", "note": "[2,4-D DMA, 2-(2,4-dichlorophenoxy) acetic acid]", "values": [{"measurement": "Alfalfa (1WAT) % control", "setting": "1 week after treatment", "result": 10.0, "unit": "%"}, {"measurement": "Alfalfa (2WAT) % control", "setting": "2 weeks after treatment", "result": 20.0, "unit": "%"}, {"measurement": "Alfalfa (3WAT) % control", "setting": "3 weeks after treatment", "result": 20.0, "unit": "%"}, {"measurement": "Alfalfa (4WAT) % control", "setting": "4 weeks after treatment", "result": 37.5, "unit": "%"}]}]}
